Measured values from US20260193264A1, “BENZOYPARAZINE PYRAZINES AND THEIR USES” (FOGHORN THERAPEUTICS INC., priority 2022, published 2026).

Tests used:
[1] = biological target: T1, HiBiT-BRM fusion protein in stable HeLa cell line (Homo sapiens, UniProt P51531); test: HiBiT-BRM cell-based degradation assay (Nano-Glo HiBiT Lytic Detection, 24 h); set-up: DC50: scale not given here; details: HeLa HiBiT-BRM cells; for DC50: read-out: BRM HiBit Degradation IC50; for BRM HiBit Degradation Maximum (%): top dose 30 μM
T1 construct: expressed in transfected cells
T1 sequence (P51531 whole entry, the tested form may be a part): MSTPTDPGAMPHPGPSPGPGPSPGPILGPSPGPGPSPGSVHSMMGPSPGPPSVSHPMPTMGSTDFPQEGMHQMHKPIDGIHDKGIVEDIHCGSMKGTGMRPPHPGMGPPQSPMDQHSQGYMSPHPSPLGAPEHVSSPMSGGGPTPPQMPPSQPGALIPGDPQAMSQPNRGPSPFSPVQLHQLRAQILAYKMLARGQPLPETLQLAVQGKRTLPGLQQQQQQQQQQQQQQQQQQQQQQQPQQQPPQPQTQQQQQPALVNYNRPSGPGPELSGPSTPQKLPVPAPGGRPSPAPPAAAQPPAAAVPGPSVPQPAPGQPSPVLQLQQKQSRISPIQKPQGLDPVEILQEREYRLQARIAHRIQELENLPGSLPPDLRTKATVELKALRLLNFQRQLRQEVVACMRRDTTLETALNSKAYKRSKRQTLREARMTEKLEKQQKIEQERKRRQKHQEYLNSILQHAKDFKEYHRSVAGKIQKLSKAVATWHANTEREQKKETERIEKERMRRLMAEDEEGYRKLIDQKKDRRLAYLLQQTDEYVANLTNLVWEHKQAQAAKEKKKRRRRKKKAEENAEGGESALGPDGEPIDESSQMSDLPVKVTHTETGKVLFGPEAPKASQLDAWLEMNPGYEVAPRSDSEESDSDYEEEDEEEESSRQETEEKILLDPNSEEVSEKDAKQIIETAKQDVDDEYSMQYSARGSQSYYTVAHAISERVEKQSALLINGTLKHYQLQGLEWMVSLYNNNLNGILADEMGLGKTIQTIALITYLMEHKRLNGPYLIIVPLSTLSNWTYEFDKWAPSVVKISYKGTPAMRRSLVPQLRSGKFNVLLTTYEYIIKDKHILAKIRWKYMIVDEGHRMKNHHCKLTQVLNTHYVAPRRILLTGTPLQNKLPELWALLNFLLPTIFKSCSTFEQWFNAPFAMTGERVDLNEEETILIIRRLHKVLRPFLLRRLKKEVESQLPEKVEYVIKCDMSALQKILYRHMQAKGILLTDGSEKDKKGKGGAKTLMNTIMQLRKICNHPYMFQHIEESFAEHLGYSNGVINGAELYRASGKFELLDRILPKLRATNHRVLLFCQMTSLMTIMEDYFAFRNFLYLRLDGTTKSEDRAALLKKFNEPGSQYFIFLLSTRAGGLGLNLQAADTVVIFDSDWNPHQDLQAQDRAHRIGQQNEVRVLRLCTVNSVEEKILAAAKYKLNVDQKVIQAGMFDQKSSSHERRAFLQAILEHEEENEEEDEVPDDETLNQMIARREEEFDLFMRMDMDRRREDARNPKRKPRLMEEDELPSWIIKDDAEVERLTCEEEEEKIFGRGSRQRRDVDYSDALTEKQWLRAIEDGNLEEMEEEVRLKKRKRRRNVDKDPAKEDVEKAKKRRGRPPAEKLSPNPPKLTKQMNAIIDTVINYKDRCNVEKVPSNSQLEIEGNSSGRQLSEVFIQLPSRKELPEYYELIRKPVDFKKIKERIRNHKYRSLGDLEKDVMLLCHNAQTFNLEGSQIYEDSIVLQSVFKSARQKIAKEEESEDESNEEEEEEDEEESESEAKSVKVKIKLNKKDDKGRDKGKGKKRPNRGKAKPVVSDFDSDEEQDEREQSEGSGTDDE
Summary of the method: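 HeLa stably expressing HiBiT-BRM; 24 h compound exposure, 10-pt 3-fold dilution from 30 μM final, duplicates. Lytic LgBiT complementation, luminescence. % degradation vs DMSO (HC) and 2 μM known BRM/BRG1 degrader (LC).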

[2] = biological target: T2, HiBit-BRG1 fusion protein in stable HeLa cell line expressing HiBit-BRG1 and LgBit (Homo sapiens, UniProt P51532); test: HiBiT-BRG1 cell-based degradation assay (Nano-Glo HiBiT, 24 h); details: HeLa HiBit-BRG1/LgBit cells; for DC50: read-out: BRMG1 HiBit Degradation IC50; for Dmax: top dose 30 μM, read-out: BRG1 HiBit Degradation Maximum (%)
T2 construct: expressed in transfected cells
T2 sequence (P51532 whole entry, the tested form may be a part): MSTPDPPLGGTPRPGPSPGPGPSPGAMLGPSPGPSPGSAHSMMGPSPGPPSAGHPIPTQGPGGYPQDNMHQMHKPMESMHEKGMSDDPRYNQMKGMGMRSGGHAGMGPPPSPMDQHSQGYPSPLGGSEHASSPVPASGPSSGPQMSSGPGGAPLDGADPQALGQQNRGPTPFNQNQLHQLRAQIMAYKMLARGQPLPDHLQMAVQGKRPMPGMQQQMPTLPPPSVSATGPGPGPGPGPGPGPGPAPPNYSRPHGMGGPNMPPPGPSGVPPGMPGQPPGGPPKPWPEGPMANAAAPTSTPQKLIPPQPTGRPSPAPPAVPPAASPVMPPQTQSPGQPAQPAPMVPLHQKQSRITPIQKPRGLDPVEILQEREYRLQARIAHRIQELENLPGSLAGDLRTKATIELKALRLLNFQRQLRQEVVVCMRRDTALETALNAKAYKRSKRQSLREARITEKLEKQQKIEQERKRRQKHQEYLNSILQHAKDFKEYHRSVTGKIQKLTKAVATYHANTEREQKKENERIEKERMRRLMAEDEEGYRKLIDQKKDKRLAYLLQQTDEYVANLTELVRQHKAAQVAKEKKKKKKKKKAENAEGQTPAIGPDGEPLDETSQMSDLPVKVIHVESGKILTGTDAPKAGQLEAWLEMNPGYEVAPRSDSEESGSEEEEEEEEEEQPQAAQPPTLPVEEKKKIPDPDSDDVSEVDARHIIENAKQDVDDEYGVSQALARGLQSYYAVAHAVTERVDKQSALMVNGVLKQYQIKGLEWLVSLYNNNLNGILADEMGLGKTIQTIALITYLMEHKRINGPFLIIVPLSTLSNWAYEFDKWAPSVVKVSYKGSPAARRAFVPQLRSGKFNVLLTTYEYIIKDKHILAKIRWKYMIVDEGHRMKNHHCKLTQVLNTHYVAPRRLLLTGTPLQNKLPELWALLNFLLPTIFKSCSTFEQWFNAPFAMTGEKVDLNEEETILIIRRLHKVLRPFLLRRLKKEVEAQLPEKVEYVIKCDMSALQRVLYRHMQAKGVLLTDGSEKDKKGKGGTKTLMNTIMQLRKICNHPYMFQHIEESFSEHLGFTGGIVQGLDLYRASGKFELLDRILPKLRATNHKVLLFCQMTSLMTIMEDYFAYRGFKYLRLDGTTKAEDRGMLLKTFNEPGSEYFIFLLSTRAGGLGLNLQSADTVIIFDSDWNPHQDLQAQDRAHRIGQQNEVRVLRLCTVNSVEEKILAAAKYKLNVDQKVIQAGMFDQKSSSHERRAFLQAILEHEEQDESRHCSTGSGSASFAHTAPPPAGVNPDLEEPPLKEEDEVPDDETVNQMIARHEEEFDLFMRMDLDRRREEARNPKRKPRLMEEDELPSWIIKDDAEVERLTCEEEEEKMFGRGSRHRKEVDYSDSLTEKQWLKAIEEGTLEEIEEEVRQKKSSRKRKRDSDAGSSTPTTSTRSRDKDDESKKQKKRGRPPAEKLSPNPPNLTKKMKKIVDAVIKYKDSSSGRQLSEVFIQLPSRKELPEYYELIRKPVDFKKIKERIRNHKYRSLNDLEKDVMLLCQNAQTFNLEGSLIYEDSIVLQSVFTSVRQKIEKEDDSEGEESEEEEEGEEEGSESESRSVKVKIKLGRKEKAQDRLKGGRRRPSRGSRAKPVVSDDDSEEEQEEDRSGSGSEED
Summary of the method: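 Degradation calculated from NanoBiT luminescence relative to DMSO-treated cells (high) and cells given 2 μM known BRM/BRG1 degrader (low). HeLa cells stably expressing HiBiT-BRG1 plus LgBiT were exposed to compound for 24 h before lytic HiBiT detection.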

SMILES: COc1cc2cc(-c3ccccc3O)nnc2cc1N1CC2(CN(c3cc([C@H](C(=O)N4C[C@H](O)C[C@H]4C(=O)N[C@@H](C)c4ccc(-c5scnc5C)cc4)C(C)C)on3)C2)C1 [Compound 159, (2S,4R)-4-hydroxy-1-((R)-2-(3-(6-(3-(2-hydroxyphenyl)-6-methoxycinnolin-7-yl)-2,6-diazaspiro[3.3]heptan-2-yl)isoxazol-5-yl)-3-methylbutanoyl)-N-((S)-1-(4-(4-methylthiazol-5-yl)phenyl)ethyl)pyrrolidine-2-carboxamide]
- DC50 [1]: < 10 nM
- BRM HiBit Degradation Maximum (%) [1]: A (“A” indicates maximum degradation ≥75%)
- DC50 [2]: < 10 nM
- Dmax [2]: > 75%

SMILES: Cc1ncsc1-c1ccc([C@H](C)NC(=O)[C@@H]2C[C@@H](O)CN2C(=O)[C@@H](c2ccnc(N3CC4(CN(c5ccc6nnc(-c7ccccc7O)cc6c5)C4)C3)c2)C(C)C)cc1 [Compound 160, (2S,4R)-4-hydroxy-1-[(2R)-2-(2-{6-[3-(2-hydroxyphenyl)cinnolin-6-yl]-2,6-diazaspiro[3.3]heptan-2-yl}pyridin-4-yl)-3-methylbutanoyl]-N-[(1S)-1-[4-(4-methyl-1,3-thiazol-5-yl)phenyl]ethyl]pyrrolidine-2-carboxamide]
- BRM HiBit Degradation Maximum (%) [1]: B (“B” indicates maximum degradation ≥50%)
- Dmax [2]: < 50%

SMILES: Cc1ncsc1-c1ccc([C@H](C)NC(=O)[C@@H]2C[C@@H](O)CN2C(=O)[C@@H](c2cc(N3CCOC4(CN(c5ccc6cc(-c7ccccc7O)nnc6c5)C4)C3)no2)C(C)C)cc1 [Compound 162, (2S,4R)-4-hydroxy-1-((R)-2-(3-(2-(3-(2-hydroxyphenyl)cinnolin-7-yl)-5-oxa-2,8-diazaspiro[3.5]nonan-8-yl)isoxazol-5-yl)-3-methylbutanoyl)-N-((S)-1-(4-(4-methylthiazol-5-yl)phenyl)ethyl)pyrrolidine-2-carboxamide]
- DC50 [1]: < 10 nM
- BRM HiBit Degradation Maximum (%) [1]: A (“A” indicates maximum degradation ≥75%)
- DC50 [2]: < 10 nM
- Dmax [2]: > 75%

SMILES: Cc1ncsc1-c1ccc([C@H](C)NC(=O)[C@@H]2C[C@@H](O)CN2C(=O)[C@@H](c2cc(N3CC4(CN(c5cc(Cl)c6cc(-c7ccccc7O)nnc6c5)C4)C3)no2)C(C)C)cc1 [Compound 163, (2S,4R)-1-((R)-2-(3-(6-(5-chloro-3-(2-hydroxyphenyl)cinnolin-7-yl)-2,6-diazaspiro[3.3]heptan-2-yl)isoxazol-5-yl)-3-methylbutanoyl)-4-hydroxy-N-((S)-1-(4-(4-methylthiazol-5-yl)phenyl)ethyl)pyrrolidine-2-carboxamide]
- DC50 [1]: < 10 nM
- BRM HiBit Degradation Maximum (%) [1]: A (“A” indicates maximum degradation ≥75%)
- Dmax [2]: < 50%

SMILES: Cc1ncsc1-c1ccc([C@H](C)NC(=O)[C@@H]2C[C@@H](O)CN2C(=O)[C@@H](c2cc(N3CC4(C3)CN(c3cc5cc(-c6ccccc6O)nnc5cc3C(F)F)C4)no2)C(C)C)cc1 [Compound 164, (2S,4R)-1-((R)-2-(3-(6-(7-(difluoromethyl)-3-(2-hydroxyphenyl)cinnolin-6-yl)-2,6-diazaspiro[3.3]heptan-2-yl)isoxazol-5-yl)-3-methylbutanoyl)-4-hydroxy-N-((S)-1-(4-(4-methylthiazol-5-yl)phenyl)ethyl)pyrrolidine-2-carboxamide]
- DC50 [1]: < 10 nM
- BRM HiBit Degradation Maximum (%) [1]: A (“A” indicates maximum degradation ≥75%)
- DC50 [2]: < 10 nM
- Dmax [2]: > 75%

SMILES: Cc1ncsc1-c1ccc([C@H](C)NC(=O)[C@@H]2C[C@@H](O)CN2C(=O)[C@@H](c2cc(N3CCC4(CC3)CN(c3ccc5nnc(-c6ccccc6O)cc5c3)CCN4C)no2)C(C)C)cc1 [Compound 165, (2S,4R)-4-hydroxy-1-((R)-2-(3-(4-(3-(2-hydroxyphenyl)cinnolin-6-yl)-1-methyl-1,4,9-triazaspiro[5.5]undecan-9-yl)isoxazol-5-yl)-3-methylbutanoyl)-N-((S)-1-(4-(4-methylthiazol-5-yl)phenyl)ethyl)pyrrolidine-2-carboxamide]
- DC50 [1]: < 10 nM
- BRM HiBit Degradation Maximum (%) [1]: A (“A” indicates maximum degradation ≥75%)
- DC50 [2]: < 10 nM
- Dmax [2]: > 75%

SMILES: Cc1ncsc1-c1ccc([C@H](C)NC(=O)[C@@H]2C[C@@H](O)CN2C(=O)[C@@H](c2cc(N3CCCC4(CN(c5ccc6nnc(-c7ccccc7O)cc6c5)C4)C3)no2)C(C)C)cc1 [Compound 166, (2S,4R)-4-hydroxy-1-((R)-2-(3-(2-(3-(2-hydroxyphenyl)cinnolin-6-yl)-2,6-diazaspiro[3.5]nonan-6-yl)isoxazol-5-yl)-3-methylbutanoyl)-N-((S)-1-(4-(4-methylthiazol-5-yl)phenyl)ethyl)pyrrolidine-2-carboxamide]
- DC50 [1]: < 10 nM
- BRM HiBit Degradation Maximum (%) [1]: A (“A” indicates maximum degradation ≥75%)
- DC50 [2]: > 10 nM
- Dmax [2]: > 75%

SMILES: Cc1ncsc1-c1ccc([C@H](C)NC(=O)[C@@H]2C[C@@H](O)CN2C(=O)[C@@H](c2cc(N3CC4(C3)CN(c3cc5nnc(-c6ccccc6O)cc5cc3C#N)C4)no2)C(C)C)cc1 [Compound 167, (2S,4R)-1-((R)-2-(3-(6-(6-cyano-3-(2-hydroxyphenyl)cinnolin-7-yl)-2,6-diazaspiro[3.3]heptan-2-yl)isoxazol-5-yl)-3-methylbutanoyl)-4-hydroxy-N-((S)-1-(4-(4-methylthiazol-5-yl)phenyl)ethyl)pyrrolidine-2-carboxamide]
- DC50 [1]: < 10 nM
- BRM HiBit Degradation Maximum (%) [1]: A (“A” indicates maximum degradation ≥75%)
- Dmax [2]: < 50%

SMILES: Cc1ncsc1-c1ccc([C@H](C)NC(=O)[C@@H]2C[C@@H](O)CN2C(=O)[C@@H](c2cc(N3CC4(C3)CN(c3cc5nnc(-c6ccccc6O)cc5cc3C(F)F)C4)no2)C(C)C)cc1 [Compound 168, (2S,4R)-1-((R)-2-(3-(6-(6-(difluoromethyl)-3-(2-hydroxyphenyl)cinnolin-7-yl)-2,6-diazaspiro[3.3]heptan-2-yl)isoxazol-5-yl)-3-methylbutanoyl)-4-hydroxy-N-((S)-1-(4-(4-methylthiazol-5-yl)phenyl)ethyl)pyrrolidine-2-carboxamide]
- DC50 [1]: < 10 nM
- BRM HiBit Degradation Maximum (%) [1]: A (“A” indicates maximum degradation ≥75%)
- DC50 [2]: < 10 nM
- Dmax [2]: > 50%

SMILES: Cc1ncsc1-c1ccc([C@H](C)NC(=O)[C@@H]2C[C@@H](O)CN2C(=O)[C@H](C(C)C)n2cc(N3CC4(CN(c5ccc6cc(-c7ccccc7O)nnc6c5)C4)C3)nn2)cc1 [Compound 169, (2S,4R)-4-hydroxy-1-((S)-2-(4-(6-(3-(2-hydroxyphenyl)cinnolin-7-yl)-2,6-diazaspiro[3.3]heptan-2-yl)-1H-1,2,3-triazol-1-yl)-3-methylbutanoyl)-N-((S)-1-(4-(4-methylthiazol-5-yl)phenyl)ethyl)pyrrolidine-2-carboxamide]
- DC50 [1]: < 10 nM
- BRM HiBit Degradation Maximum (%) [1]: A (“A” indicates maximum degradation ≥75%)
- DC50 [2]: < 10 nM
- Dmax [2]: > 50%

SMILES: Cc1ncsc1-c1ccc([C@H](C)NC(=O)[C@@H]2C[C@@H](O)CN2C(=O)[C@H](C(C)C)n2cc(-c3cc4cc(-c5ccccc5O)nnc4cc3C#N)nn2)cc1 [Compound 170, (2S,4R)-1-[(2S)-2-{4-[7-cyano-3-(2-hydroxyphenyl)cinnolin-6-yl]-1,2,3-triazol-1-yl}-3-methylbutanoyl]-4-hydroxy-N-[(1S)-1-[4-(4-methyl-1,3-thiazol-5-yl)phenyl]ethyl]pyrrolidine-2-carboxamide]
- DC50 [1]: > 10 nM
- BRM HiBit Degradation Maximum (%) [1]: B (“B” indicates maximum degradation ≥50%)
- Dmax [2]: < 50%

SMILES: Cc1ncsc1-c1ccc([C@H](C)NC(=O)[C@@H]2C[C@@H](O)CN2C(=O)[C@H](C(C)C)n2cc(-c3cc4cc(-c5ccccc5O)nnc4cc3C(F)F)nn2)cc1 [Compound 171, (2S,4R)-1-((S)-2-(4-(7-(difluoromethyl)-3-(2-hydroxyphenyl)cinnolin-6-yl)-1H-1,2,3-triazol-1-yl)-3-methylbutanoyl)-4-hydroxy-N-((S)-1-(4-(4-methylthiazol-5-yl)phenyl)ethyl)pyrrolidine-2-carboxamide]
- DC50 [1]: < 10 nM
- BRM HiBit Degradation Maximum (%) [1]: A (“A” indicates maximum degradation ≥75%)
- DC50 [2]: < 10 nM
- Dmax [2]: > 75%

SMILES: Cc1ncsc1-c1ccc([C@H](C)NC(=O)[C@@H]2C[C@@H](O)CN2C(=O)[C@H](C(C)C)n2cc(N3CC4(CN(c5ccc6nnc(-c7ccccc7O)cc6c5)C4)C3)nn2)cc1 [Compound 172, (2S,4R)-4-hydroxy-1-((S)-2-(4-(6-(3-(2-hydroxyphenyl)cinnolin-6-yl)-2,6-diazaspiro[3.3]heptan-2-yl)-1H-1,2,3-triazol-1-yl)-3-methylbutanoyl)-N-((S)-1-(4-(4-methylthiazol-5-yl)phenyl)ethyl)pyrrolidine-2-carboxamide]
- DC50 [1]: < 10 nM
- BRM HiBit Degradation Maximum (%) [1]: A (“A” indicates maximum degradation ≥75%)
- DC50 [2]: < 10 nM
- Dmax [2]: > 50%

SMILES: Cc1ncsc1-c1ccc([C@H](C)NC(=O)[C@@H]2C[C@@H](O)CN2C(=O)[C@@H](c2cc(N3CC4(CN(c5cc(C#N)c6cc(-c7ccccc7O)nnc6c5)C4)C3)no2)C(C)C)cc1 [Compound 173, (2S,4R)-1-((R)-2-(3-(6-(5-cyano-3-(2-hydroxyphenyl)cinnolin-7-yl)-2,6-diazaspiro [3.3]heptan-2-yl)isoxazol-5-yl)-3-methylbutanoyl)-4-hydroxy-N-((S)-1-(4-(4-methylthiazol-5-yl)phenyl)ethyl)pyrrolidine-2-carboxamide]
- DC50 [1]: > 10 nM
- BRM HiBit Degradation Maximum (%) [1]: B (“B” indicates maximum degradation ≥50%)
- Dmax [2]: < 50%
